# Entries after “also recorded” stand apart in the source; their conditions may differ. Marks after values point to notes of the source that are not given here.
# Columns and labels:
# [1] = Bulk crystallization of L-cystine in the presence of additives (mass yield); conditions: for Yield (%) = (collected mass by filtration, >11 μm)/(total mass added) × 100%: 2 mg/L additive, 0.7 g/L L-cystine (pH 6.8), no additive 80, approximate error ±8%, Dihydrochloride
# Description: Alternately, the hexagonal crystals can be obtained by crystallization performed near neutral pH (Sa) The hexagonal form was crystallized from a supersaturated L-cystine solution prepared by adding 70 mg of L-cystine to 100 mL of deionized water (3 mM), and heating under reflux at 100° C. for 20 min with stirring to completely dissolve L-cystine. […] This concentration was used for bulk crystallization studies in the presence of additives so that a measurable amount of bulk crystals could be obtained in a reasonable time. The solution was then allowed to cool slowly with stirring for 75 min. 30 mL aliquots were transferred to separate glass containers, which were then sealed to prevent evaporation and exposure to airborne particulates and stored for 72 hours at room temperature without stirring. […] The crystals retrieved in this manner were used for AFM studies by mounting individual crystals according to the procedure described below.
# Various proteins, poly-amino acids, and molecular mimics of L-cystine were examined as additives. The aforementioned procedure for hexagonal platelet crystallization was repeated. Following the 75 min cooling period, prior to any observable crystallization, the additive was added to the supersaturated L-cystine solution to the desired concentration. […] Crystallization without additive was performed in an identical manner for comparison using a control solution from the same batch. The mass yields of L-cystine crystals were obtained by dividing the mass of L-cystine crystals (collected from growth solution by filtration) by the mass of L-cystine added in the growth solution.
# Additives chosen for these studies were various proteins, poly-amino acids, and molecular mimics of L-cystine (see Table 1). The above procedure for hexagonal platelet crystallization was repeated until completion of the 75 min cooling period, at which point 29.5 g of solution was transferred to a 100 mL beaker containing 0.5 g of separately prepared additive solution to yield net concentrations of 2 mg/L additive and 0.7 g/L L-cystine. Additive solutions were replaced with deionized water of equivalent volume for control measurements. […]
# L-cystine bulk crystallization was investigated in the presence of various polymers, urinary constituents, fish antifreeze proteins (AFPs), and L-cystine derivatives (i.e. structural mimics of L-cystine), which were analyzed as possible growth inhibitors of hexagonal L-cystine. The potency of each additive was assessed by comparing the difference in crystal yield (Table 1), which is equal to the mass of crystals formed in the presence of 2 mg/L additive (isolated with […]) divided by the total mass of L-cystine (700 mg/L).
# [2] = Crystal size and habit by optical microscopy and SEM after bulk crystallization with additive
# Description: Various proteins, poly-amino acids, and molecular mimics of L-cystine were examined as additives. The aforementioned procedure for hexagonal platelet crystallization was repeated. Following the 75 min cooling period, prior to any observable crystallization, the additive was added to the supersaturated L-cystine solution to the desired concentration. The container was sealed and stored for 72 hours at room temperature without stirring, after which the precipitate was collected by vacuum filtration (Whatman Grade 1 filters, >11 μm pores) and were air dried prior to analysis. Crystallization without additive was performed in an identical manner for comparison using a control solution from the same batch. The mass yields of L-cystine crystals were obtained by dividing the mass of L-cystine crystals (collected from growth solution by filtration) by the mass of L-cystine added in the growth solution. The crystals were isolated with 11 μm-pore filters, which were regarded as sufficiently small for reliable capture of the crystals (optical micrographs reveal that the size of crystals was always greater than 50 μm
# An Orion 3 Star pH meter (Thermo Electron Corp.) with Orion 9157BNMD probe was used to measure the pH of L-cystine solutions. Crystal morphology was measured with a Leitz ERGOLUZ optical microscope and a Hitachi 3500 scanning electron microscopy. A thin coating of gold (2 nm) was sputtered on SEM samples and images were acquired at low voltage (2-5 kV) to minimize sample melting. ^1H NMR spectra were recorded using a Bruker AVANCE 400 spectrometer and were routinely run using broadband decoupling. Chemical shifts (δ), expressed in ppm, are referenced to the corresponding residual nuclei in deuterated solvent (D2O). Powder X-ray diffraction (XRD) patterns of isolated crystals were acquired with a Panalytical XPert PRO MPD using a Bragg-Brentano geometry with fixed slits at power settings of 45 kV and 40 mA. A CuKa radiation (0.154 nm) source was used with a 1 degree fixed divergence slit (10 mm beam mask) for incident X-rays and a 1 degree anti-scatter slit Ni filter ( 1/16 degree receiving slit) for diffracted X-rays.
compound,measurement,setting,value
"COC(=O)[C@@H](N)CSSC[C@H](N)C(=O)OC.Cl.Cl [CDME, Cystine Dimethyl Ester Dihydrochloride]",CDME concentration sufficient to inhibit in vitro L-cystine crystallization,[1]; 2 mM L-cystine,~25 mg/L
same,"Yield (%) = (collected mass by filtration, >11 μm)/(total mass added) × 100%",[1],13%
same,"Yield (%) = (collected mass by filtration, >11 μm)/(total mass added) × 100%",[1]; listed as L-cystine dimethyl ester,13* %
same,CDME amount sufficient to suppress crystallization,"[1]; 25 mg/L CDME in supersaturated L-cystine, 8 μm filter pores",3 wt %
same,mass yield of needles less than the yield of platelets in the absence of additive,[1]; CDME concentration approaching 5 mg/L,more than 70%
same,CDME dosage that may be sufficient to inhibit in vivo L-cystine crystallization,[1]; extrapolated from 2 mM to physiological urine L-cystine (~0.4 mM),less than 4 mg/L
same,needle volume less than hexagonal platelets,[2],~100 times
same,size of hexagonal platelets,"[2]; 1.7 mg/L CDME, 700 mg/L L-cystine, without additive 200-400 μm",50-100 μm
same,number of needles collected,"[2]; 25 mg/L (3 wt %) CDME, Dihydrochloride",negligible; also recorded: Trace number of needles

# — patent US9040261B2, “Compounds as L-cystine crystallization inhibitors and uses thereof” (NEW YORK UNIVERSITY, priority 2009, dated 2015)
